Experimental data as given in patent publication US20100003289A1, “Controlled Release Complex Formulation For Oral Administration of Medicine For Diabetes and Method For The Preparation Thereof” (Hanmi Pharm, Co., Ltd., priority 2004, published 2010).

Assay: Stability of glimepiride in solution as function of pH, Test Example 5
Assay type: physicochemical
Parameters: Rate constant (K): unit not given beside the values
Settings: for Log K / Rate constant (K) / T50% (time taken for 50% disintegration of the drug, 0.693/K): room temperature
Protocol: In order to examine the stability of glimepiride in a solution as function of pH changes, only the glimepiride rapid-release portion of the formulation of Example 13 was separated, and dissolved in each of the solutions listed in Table 17. Each of the resulting solutions was kept at room temperature and the glimepiride contents thereof were measured at predetermined times.

[1] = pH 1.2, 1st solution of disintegrating-test in Korea pharmacopoeia
[2] = pH 4.0, British pharmacopoeia buffer solution (1998)
[3] = pH 6.8, 2nd solution of disintegrating-test in Korea pharmacopoeia
[4] = pH 7.8, phosphate buffer solution (Amaryl release solution)

CCC1=C(C)CN(C(=O)NCCc2ccc(S(=O)(=O)NC(=O)N[C@H]3CC[C@H](C)CC3)cc2)C1=O [glimepiride]
Log K [1]: 0.186
Rate constant (K) [1]: 1.534
T50% (time taken for 50% disintegration of the drug, 0.693/K) [1]: 0.45
Log K [2]: −0.472
Rate constant (K) [2]: 0.337
T50% (time taken for 50% disintegration of the drug, 0.693/K) [2]: 2.06
Log K [3]: −0.900
Rate constant (K) [3]: 0.126
T50% (time taken for 50% disintegration of the drug, 0.693/K) [3]: 5.50
Log K [4]: −1.187
Rate constant (K) [4]: 0.065
T50% (time taken for 50% disintegration of the drug, 0.693/K) [4]: 10.66
Log K (pH 10.0, Meglumin 1% solution): −2.721
Rate constant (K) (pH 10.0, Meglumin 1% solution): 0.002
T50% (time taken for 50% disintegration of the drug, 0.693/K) (pH 10.0, Meglumin 1% solution): 346.50
stability of glimepiride as function of the solution pH (solution containing meglumin, judged by lowest K value, FIG. 9): most stable
